Results taken from US6797694B2, “Chemical compounds having ion channel blocking activity for the treatment of immune dysfunction” (priority 1999, dated 2004).

Test system: T cells
Assay: Inhibition of antigen (PPD) induced T cell proliferation, [3H]thymidine incorporation
Assay type: cell-based
Conditions: solvent control 26.1
Method: The chemical compounds used according to the invention prevent immunological proliferation by selective inhibition of the Ca^2+-activated K-channels in T- and B-lymphocytes. This effect may be verified using various proliferation assays. In this experiment the proliferative assay described by Ødum et al. [Ødum N, Kanner S B, Ledbetter J A, & Svejgaard A; J. Immunol. 1993 150 (12) 5289-5298] was used.
Assays were performed in culture medium (RPMI 1640; available from Gibco, Grand Island, N.Y.) supplemented with 10% pooled human serum, 2 mM L-glutamine, 100 μg/ml penicillin, and 100 μg/ml streptomycin (available from Novo Nordisk, Copenhagen, Denmark) in 96-well round bottom tissue culture plates (available from Nunc, Roskilde, Denmark) with a final volume of 200 μl.
T cells were pre-incubated for three hours with the test compounds before addition of antigen (PPD; Purified protein derivative, available from Statens Serum Institut, Denmark; 100 μg/ml). T cells were cultured at 5×10^4 cells/well for 144 hours. Twelve hours before harvest, [^3H]thymidine ([…]) was added. The cells were harvested onto glass fibre filters, and the [^3H]thymidine incorporation was measured in a scintillation counter. The results were expressed as mean counts per minute (cpm) from triplicate cultures.

SMILES	T Cell Proliferation (test compound 10 μM) [cpm × 10^−3]	T Cell Proliferation (test compound 25 μM) [cpm × 10^−3]
CC(=O)C(c1ccccc1)(c1ccccc1)c1ccccc1 [C, 1,1,1-triphenylacetone]	18	19
OC(c1ccccc1)(c1ccccc1)c1ccc(Cl)cc1 [A, (4-chlorophenyl-diphenyl)-carbinol]	19.8	18.1
